Data from US20220151962A1, “NOVEL INHIBITORS OF HISTONE DEACETYLASE 10” (Deutsches Krebsforschungszentrum, priority 2019, published 2022).
pIC50: −log10 of the molar value. Where “and” joins values, the source holds several entries; their conditions need not be identical. Equal entries are not always repeated. Where two headings read alike, the source gives them in different places.

What was measured:
HDAC1 [1] = molecular target: T1, HDAC1 (Homo sapiens, UniProt Q13547); assay: HDAC1 (ZMAL) fluorogenic activity assay; type: biochemical; conditions: read-out: HDAC1 (ZMAL) percent enzyme inhibition
T1 construct: purchased BPS Bioscience 50051

HDAC6 [2] = molecular target: T2, HDAC6 (Homo sapiens, UniProt Q9UBN7); assay: HDAC6 (ZMAL) fluorogenic activity assay; type: biochemical; conditions: read-out: HDAC6 (ZMAL) percent enzyme inhibition
T2 construct: purchased BPS Bioscience 50006
T2 sequence (Q9UBN7 1-1215): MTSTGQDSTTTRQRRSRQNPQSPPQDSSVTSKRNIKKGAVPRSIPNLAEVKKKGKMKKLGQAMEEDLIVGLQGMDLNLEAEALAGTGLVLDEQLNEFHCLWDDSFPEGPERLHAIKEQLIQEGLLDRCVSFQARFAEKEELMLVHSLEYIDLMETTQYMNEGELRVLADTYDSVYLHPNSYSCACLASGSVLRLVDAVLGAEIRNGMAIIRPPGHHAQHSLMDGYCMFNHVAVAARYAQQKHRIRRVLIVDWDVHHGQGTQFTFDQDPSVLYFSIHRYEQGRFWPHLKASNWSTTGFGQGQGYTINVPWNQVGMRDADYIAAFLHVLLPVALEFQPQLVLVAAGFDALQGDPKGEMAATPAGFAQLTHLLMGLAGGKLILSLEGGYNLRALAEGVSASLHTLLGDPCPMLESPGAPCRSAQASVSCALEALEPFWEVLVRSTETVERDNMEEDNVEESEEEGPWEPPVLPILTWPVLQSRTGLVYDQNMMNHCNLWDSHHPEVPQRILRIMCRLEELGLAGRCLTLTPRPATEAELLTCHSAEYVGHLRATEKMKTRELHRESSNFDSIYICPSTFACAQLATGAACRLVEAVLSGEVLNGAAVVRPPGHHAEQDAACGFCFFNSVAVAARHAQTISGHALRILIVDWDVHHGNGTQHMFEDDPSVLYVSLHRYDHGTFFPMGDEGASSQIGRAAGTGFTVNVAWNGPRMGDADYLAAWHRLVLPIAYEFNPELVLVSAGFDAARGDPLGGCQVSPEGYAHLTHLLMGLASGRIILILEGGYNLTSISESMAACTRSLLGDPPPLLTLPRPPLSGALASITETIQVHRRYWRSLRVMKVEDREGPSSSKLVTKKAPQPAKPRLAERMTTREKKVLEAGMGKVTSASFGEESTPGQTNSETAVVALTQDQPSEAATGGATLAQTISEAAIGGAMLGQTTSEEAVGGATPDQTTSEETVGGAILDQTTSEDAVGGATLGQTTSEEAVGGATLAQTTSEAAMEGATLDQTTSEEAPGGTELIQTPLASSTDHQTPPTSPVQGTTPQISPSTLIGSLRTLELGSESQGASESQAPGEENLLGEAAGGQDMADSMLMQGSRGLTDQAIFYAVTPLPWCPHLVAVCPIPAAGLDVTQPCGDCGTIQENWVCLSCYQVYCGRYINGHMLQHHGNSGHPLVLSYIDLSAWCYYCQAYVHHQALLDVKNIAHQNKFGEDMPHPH

zebrafish HDAC10 = molecular target: T3, zebrafish HDAC10 (Danio rerio, UniProt F1QCV2); assay: Zebrafish HDAC10 assay (zHDAC10), Ac-spermidine-AMC substrate; type: biochemical; conditions: read-out: zHDAC10 percent enzyme inhibition
T3 sequence (F1QCV2 1-675): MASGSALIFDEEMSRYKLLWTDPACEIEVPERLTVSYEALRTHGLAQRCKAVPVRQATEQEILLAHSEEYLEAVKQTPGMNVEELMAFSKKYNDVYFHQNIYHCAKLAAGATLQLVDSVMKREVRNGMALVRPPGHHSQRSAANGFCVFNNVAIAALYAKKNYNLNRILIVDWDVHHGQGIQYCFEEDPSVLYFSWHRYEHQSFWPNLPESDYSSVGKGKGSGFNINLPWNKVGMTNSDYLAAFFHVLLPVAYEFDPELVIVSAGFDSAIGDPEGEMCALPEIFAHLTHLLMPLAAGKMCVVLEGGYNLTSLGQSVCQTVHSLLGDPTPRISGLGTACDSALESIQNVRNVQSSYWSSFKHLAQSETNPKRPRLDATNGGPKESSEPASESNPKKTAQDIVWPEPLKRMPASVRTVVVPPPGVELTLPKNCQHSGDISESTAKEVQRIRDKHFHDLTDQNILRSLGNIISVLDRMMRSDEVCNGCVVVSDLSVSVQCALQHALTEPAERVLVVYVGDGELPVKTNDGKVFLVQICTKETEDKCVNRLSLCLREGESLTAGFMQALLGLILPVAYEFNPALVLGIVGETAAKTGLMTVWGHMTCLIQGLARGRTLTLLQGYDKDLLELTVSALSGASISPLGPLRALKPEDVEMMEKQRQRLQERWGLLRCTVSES

[3] = molecular target: T4, HDAC10-nanoluciferase fusion in HeLa cells (Homo sapiens, UniProt Q969S8); assay: BRET intracellular target engagement assay, HDAC10; conditions: for HDAC10/6 fold selectivity (BRET): HDAC10 over HDAC6, from BRET
T4 sequence (Q969S8 1-669): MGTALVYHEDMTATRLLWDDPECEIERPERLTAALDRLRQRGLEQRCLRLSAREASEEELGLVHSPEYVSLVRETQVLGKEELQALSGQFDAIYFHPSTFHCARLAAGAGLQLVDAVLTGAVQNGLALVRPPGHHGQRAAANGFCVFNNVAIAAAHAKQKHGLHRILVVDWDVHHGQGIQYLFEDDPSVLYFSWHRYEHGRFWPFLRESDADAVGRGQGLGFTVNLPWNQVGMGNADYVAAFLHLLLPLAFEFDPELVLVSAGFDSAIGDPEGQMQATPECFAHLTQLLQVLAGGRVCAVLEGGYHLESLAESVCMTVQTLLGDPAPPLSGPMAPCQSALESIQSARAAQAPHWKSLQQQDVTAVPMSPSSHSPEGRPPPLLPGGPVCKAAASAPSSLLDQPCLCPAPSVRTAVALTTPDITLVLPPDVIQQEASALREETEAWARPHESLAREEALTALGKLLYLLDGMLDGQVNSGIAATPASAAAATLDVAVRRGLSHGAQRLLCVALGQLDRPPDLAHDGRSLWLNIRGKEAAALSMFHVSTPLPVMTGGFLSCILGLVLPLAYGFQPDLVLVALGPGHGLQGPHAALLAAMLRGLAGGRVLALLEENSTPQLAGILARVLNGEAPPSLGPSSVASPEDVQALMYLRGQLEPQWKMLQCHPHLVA

HDAC8 [4] = molecular target: T5, HDAC8 (Homo sapiens, UniProt Q9BY41); assay: HDAC8 (FDL) Fluor de Lys assay; type: biochemical; parameters: obtained from C; Romier (academic laboratory, not a vendor); conditions: read-out: HDAC8 (FDL) percent enzyme inhibition
T5 sequence (Q9BY41 1-377): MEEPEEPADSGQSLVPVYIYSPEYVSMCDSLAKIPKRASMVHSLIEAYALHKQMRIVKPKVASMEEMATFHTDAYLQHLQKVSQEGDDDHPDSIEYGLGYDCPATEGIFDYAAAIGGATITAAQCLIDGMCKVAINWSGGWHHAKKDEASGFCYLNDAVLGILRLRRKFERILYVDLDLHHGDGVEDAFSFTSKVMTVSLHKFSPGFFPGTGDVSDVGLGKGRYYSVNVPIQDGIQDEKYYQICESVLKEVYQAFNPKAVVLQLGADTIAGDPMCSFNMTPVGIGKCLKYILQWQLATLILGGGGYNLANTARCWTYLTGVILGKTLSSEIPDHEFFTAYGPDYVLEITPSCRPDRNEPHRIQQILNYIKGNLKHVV

HDAC1 [5] = molecular target: T1, HDAC1; assay: HDAC-Glo I/II assay, HDAC1; type: biochemical; conditions: recombinant human HDAC1, HDAC-Glo; read-out: pIC50 HDAC1 Glo (converted)
HDAC2 = molecular target: T6, HDAC2 (Homo sapiens, UniProt Q92769); assay: HDAC-Glo I/II assay, HDAC2; type: biochemical; conditions: recombinant human HDAC2, HDAC-Glo; read-out: pIC50 HDAC2 Glo (converted)
T6 construct: purchased BPS Bioscience 50002

HDAC3/NcoR2 complex = molecular target: T7, HDAC3/NcoR2 complex (Homo sapiens, UniProt O15379); assay: HDAC-Glo I/II assay, HDAC3/NcoR2 complex; type: biochemical; conditions: recombinant human HDAC3/NcoR2 complex, read-out: pIC50 HDAC3 Glo (converted)
T7 construct: purchased BPS Bioscience 50003

HDAC6 [6] = molecular target: T2, HDAC6; assay: HDAC-Glo I/II assay, HDAC6; type: biochemical; conditions: recombinant human HDAC6, HDAC-Glo; read-out: pIC50 HDAC6 Glo (converted)
TwinStrep-GST-HDAC10 = molecular target: T8, TwinStrep-GST-HDAC10 (Homo sapiens, UniProt Q969S8); assay: HDAC10 TR-FRET assay (Tubastatin-AF647-Tracer displacement); type: binding; conditions: for IC50: TR-FRET, 60 min at rt, read-out: pIC50 HDAC10 FRET (converted)
T8 construct: made in house; host or cells: Sf21 insect cells (baculovirus, pFastBac1)
T8 sequence (Q969S8 1-669): T4 sequence (Q969S8 1-669)

HDAC8 [7] = molecular target: T5, HDAC8; assay: HDAC-Glo I/II assay, HDAC8; type: biochemical; parameters: purchased BPS Bioscience 50008; conditions: recombinant human HDAC8, HDAC-Glo; read-out: pIC50 HDAC8 Glo (converted)
[8] = molecular target: T9, HDAC6 (2nd catalytic domain)-nanoluciferase fusion in HeLa cells (Homo sapiens, UniProt Q9UBN7); assay: BRET intracellular target engagement assay, HDAC6
T9 sequence (Q9UBN7 482-800 limits assumed): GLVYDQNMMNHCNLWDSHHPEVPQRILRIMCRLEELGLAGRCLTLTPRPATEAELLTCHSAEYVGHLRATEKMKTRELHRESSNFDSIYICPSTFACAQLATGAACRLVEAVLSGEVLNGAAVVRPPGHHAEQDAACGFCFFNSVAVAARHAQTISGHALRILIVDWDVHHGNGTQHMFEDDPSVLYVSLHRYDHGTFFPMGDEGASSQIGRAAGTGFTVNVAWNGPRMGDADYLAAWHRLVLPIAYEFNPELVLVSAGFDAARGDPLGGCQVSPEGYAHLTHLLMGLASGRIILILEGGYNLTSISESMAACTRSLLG

T7 sequence (O15379 whole entry): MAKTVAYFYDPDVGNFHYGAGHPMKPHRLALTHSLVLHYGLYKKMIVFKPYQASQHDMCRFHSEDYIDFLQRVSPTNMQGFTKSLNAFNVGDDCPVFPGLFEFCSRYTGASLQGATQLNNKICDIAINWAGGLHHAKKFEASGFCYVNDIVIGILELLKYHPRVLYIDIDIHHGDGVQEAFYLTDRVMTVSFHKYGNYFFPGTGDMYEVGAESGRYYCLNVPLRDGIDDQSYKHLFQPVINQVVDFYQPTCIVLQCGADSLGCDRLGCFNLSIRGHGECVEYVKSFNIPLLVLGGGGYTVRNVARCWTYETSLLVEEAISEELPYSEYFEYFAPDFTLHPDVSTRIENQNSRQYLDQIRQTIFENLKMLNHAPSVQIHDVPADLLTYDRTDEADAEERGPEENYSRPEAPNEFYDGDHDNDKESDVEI
T7 sequence (Q9Y618 395-489 partner limits assumed): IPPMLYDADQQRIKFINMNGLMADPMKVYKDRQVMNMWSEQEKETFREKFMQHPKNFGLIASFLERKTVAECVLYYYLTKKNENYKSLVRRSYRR
T1 sequence (Q13547 whole entry): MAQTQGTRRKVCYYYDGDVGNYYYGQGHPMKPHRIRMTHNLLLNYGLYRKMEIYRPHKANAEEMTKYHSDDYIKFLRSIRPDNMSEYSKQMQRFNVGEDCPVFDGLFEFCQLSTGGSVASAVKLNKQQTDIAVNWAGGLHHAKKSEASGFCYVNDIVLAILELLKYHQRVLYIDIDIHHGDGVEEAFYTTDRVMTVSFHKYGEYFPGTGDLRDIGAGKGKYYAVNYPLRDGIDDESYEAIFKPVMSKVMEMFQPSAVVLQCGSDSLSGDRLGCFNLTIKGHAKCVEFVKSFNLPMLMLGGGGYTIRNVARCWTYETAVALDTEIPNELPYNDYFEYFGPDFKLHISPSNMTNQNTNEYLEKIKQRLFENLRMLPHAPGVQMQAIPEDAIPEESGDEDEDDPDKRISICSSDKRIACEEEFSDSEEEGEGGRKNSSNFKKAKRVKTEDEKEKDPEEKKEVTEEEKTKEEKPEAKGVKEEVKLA
T6 sequence (Q92769 whole entry): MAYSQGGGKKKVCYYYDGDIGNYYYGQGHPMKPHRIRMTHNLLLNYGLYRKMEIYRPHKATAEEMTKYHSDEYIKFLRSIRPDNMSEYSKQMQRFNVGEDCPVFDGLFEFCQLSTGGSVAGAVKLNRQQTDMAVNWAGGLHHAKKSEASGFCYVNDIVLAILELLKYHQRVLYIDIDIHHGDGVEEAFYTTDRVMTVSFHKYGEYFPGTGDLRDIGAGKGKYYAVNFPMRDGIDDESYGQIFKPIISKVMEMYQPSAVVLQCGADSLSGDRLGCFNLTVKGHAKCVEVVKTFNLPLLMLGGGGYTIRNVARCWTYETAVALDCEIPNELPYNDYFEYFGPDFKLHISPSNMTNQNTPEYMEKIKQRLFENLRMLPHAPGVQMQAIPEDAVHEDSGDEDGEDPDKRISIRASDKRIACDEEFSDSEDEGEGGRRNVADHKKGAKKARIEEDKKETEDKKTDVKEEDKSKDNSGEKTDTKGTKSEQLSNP

## O=C(NO)C1CCN(CCc2cccc(Br)c2)CC1 [DH71, 1-(3-Bromophenethyl)-N-hydroxypiperidine-4-carboxamide]
HDAC1 [1]
  inhibition at 1 µM: -5%
  inhibition at 10 µM: 6%
HDAC6 [2]
  inhibition at 1 µM: -2%
  inhibition at 10 µM: 28%
Zebrafish HDAC10
  inhibition at 0.1 µM: 0%
  inhibition at 1 µM: 10%
  inhibition at 10 µM: 61%
[3]
  pIC50: 6.41
HDAC8 [4]
  inhibition at 1 µM: 27%
  inhibition at 10 µM: 70%

## CCCCN(CCCC(=O)NO)CCC(=O)Nc1ccccc1 [DKFZ-717, 4-(Butyl(3-oxo-3-(phenylamino)propyl)amino)-N-hydroxybutanamide]
HDAC1 [5]
  IC50: 79.4 µM
HDAC2
  IC50: > 200 µM
HDAC3/NcoR2 complex
  IC50: ~200 µM
HDAC6 [6]
  IC50: 5.01 µM
TwinStrep-GST-HDAC10
  IC50: 0.631 µM
HDAC8 [7]
  IC50: 7.94 µM
[8]
  pIC50: < 4.40
[3]
  pIC50: 5.80
  HDAC10/6 fold selectivity (BRET): 38 fold

## O=C(CCCN(CCC(=O)Nc1ccccc1)C1CC1)NO [DKFZ-724, 4-(Cyclopropyl(3-oxo-3-(phenylamino)propyl)amino)-N-hydroxybutanamide]
HDAC1 [5]
  IC50: 39.8 µM
HDAC2
  IC50: > 200 µM
HDAC3/NcoR2 complex
  IC50: 126 µM
HDAC6 [6]
  IC50: 3.16 µM
TwinStrep-GST-HDAC10
  IC50: 0.251 µM
HDAC8 [7]
  IC50: 2 µM
[8]
  pIC50: < 4.40
[3]
  pIC50: 6.40
  HDAC10/6 fold selectivity (BRET): >110 fold

## CN(CCCC(=O)NO)CCCC(=O)Nc1ccccc1 [DKFZ-775, N-Hydroxy-4-(methyl(4-oxo-4-(phenylamino)butyl)amino)butanamide]
HDAC1 [5]
  IC50: 50.1 µM
HDAC3/NcoR2 complex
  IC50: > 100 µM
HDAC6 [6]
  IC50: 12.6 µM
HDAC8 [7]
  IC50: 25.1 µM
[8]
  pIC50: < 4.40

## O=C(NO)C1CCN(CCc2ccc(Br)cc2)CC1 [DH67, 1-(4-Bromophenethyl)-N-hydroxypiperidine-4-carboxamide]
HDAC1 [1]
  inhibition at 1 µM: 7%
  inhibition at 10 µM: 6%
HDAC6 [2]
  inhibition at 1 µM: -4%
  inhibition at 10 µM: 18%
Zebrafish HDAC10
  inhibition at 0.1 µM: 7%
  inhibition at 1 µM: 40%
  inhibition at 10 µM: 67%
[3]
  pIC50: 6.43
HDAC8 [4]
  inhibition at 1 µM: 33%
  inhibition at 10 µM: 69%

## CN(CCCC(=O)NO)CCNC(=O)c1c2ccccc2cc2ccccc12 [DKFZ-771, N-(2-((4-(Hydroxyamino)-4-oxobutyl)(methyl)amino)ethyl)anthracene-9-carboxamide]
HDAC1 [5]
  IC50: 2 µM
HDAC2
  IC50: 3.98 µM
HDAC6 [6]
  IC50: 0.631 µM
HDAC8 [7]
  IC50: 0.794 µM
[8]
  pIC50: 5.40

## O=C(NO)C1CCN(CCc2ccccc2)CC1 [DH22, N-Hydroxy-1-phenethylpiperidine-4-carboxamide]
TwinStrep-GST-HDAC10; two separate measurements, each made in triplicate, read-out: HDAC10 FRET IC50
  pIC50: 6.76 and 6.59
HDAC1 [1]
  inhibition at 1 µM: -1%
  inhibition at 10 µM: 7%
HDAC6 [2]
  inhibition at 1 µM: -2%
  inhibition at 10 µM: 17%
Zebrafish HDAC10
  inhibition at 0.1 µM: 13%
  inhibition at 1 µM: 20%
  inhibition at 10 µM: 80%
HDAC8 [4]
  inhibition at 1 µM: 27%
  inhibition at 10 µM: 56%
